Measured values: a melting point compilation (Tetko et al.; mined from patent text by program, amines drawn as free bases though some values may be those of a salt)

Compound	melting point [°C]
Nc1ccc(Br)cc1CC1NC(=O)NC1=O (configuration not stated)	> 310
Cc1ccc(S(=O)(=O)n2c(I)cc3c(Br)ccnc32)cc1	140 to 143
COC(=O)C1=C(N)OC(C)=C(C(C)=O)C1c1cccc([N+](=O)[O-])c1 (configuration not stated)	160 to 163
CON1C(C)(C)CC(=O)CC1(C)C	35 to 38
COCC1CN(c2ccc(C3CCCCC3)c([N+](=O)[O-])c2)C(=O)O1 (racemic)	105 to 106
COc1ccc(COc2ccc(N)cc2)cc1	118 to 120
CN(C(CCn1c(=O)[nH]c2ccsc2c1=O)C(=O)O)S(=O)(=O)c1ccc(Oc2ccccc2)cc1 (configuration not stated)	218 to 219
c1cncc(-c2cnc3ccccc3c2)c1	117 to 119
CNC(=O)Oc1ccc(N=Cc2ccccc2O)c(C)c1	156 to 157
CC(C)C1C(=O)Nc2ccc(OCC3CO3)cc21 (configuration not stated)	122 to 125
O=C(c1cnccn1)N1CCN(Cc2ccc3c(c2)-c2[nH]nc(-c4ccsc4)c2C3)CC1	254 to 259
CCOC(=O)c1ccoc1Cn1c(NC2CCN(C(=O)OCC)CC2)nc2ccccc21	162
Fc1cc(Cl)ccc1-n1nc2c(c1Br)CCCCC2	59 to 60
CN=Cc1ccc2c(Br)c(OC)ccc2c1	105 to 107
COc1ccc2c(C)c(-c3c(OC)cccc3OC(C)=O)c(=O)oc2c1	125 to 126
Cc1cc(C)nc(C(=O)n2cc(CC(=O)O)c3ccc(Cl)cc32)c1	219 to 220
C=Cc1cnc2c(NC(=O)c3c(Cl)cccc3Cl)cccc2c1CCO	133 to 135
OC(CCl)COc1cccc2sncc12 (configuration not stated)	104 to 106
CCC(=O)NCCc1cnn2ccc3occc3c12	104 to 106
C[C@]1(O)CCCC[C@H]1n1cnc(C(=O)N2CCNC[C@H]2Cc2ccccc2)c1-c1ccccc1	191
COC(=O)/C=C(C)/C=C/C(F)=C(C)/C=C/c1c(C)sc(C)c1C	126 to 128
Cc1nccn1-c1cccc(C2=Nc3ccc(-c4ccccc4F)cc3NC(=O)C2)c1	187

Compound	melting point [°C]
COc1cc(S(C)(=O)=O)ccc1-c1nc2cc3c(cc2[nH]1)N(C(C)=O)CC3(C)C	223 to 225
O=C(CCl)N1CCOc2ccccc21	107 to 108
Cc1cccc(-c2c[nH]nc2-c2ccnc(-c3ccc(OCCN4CCCC4)cc3)c2)n1	96
COC(=O)C1N=C(c2ccccc2F)c2cc(Cl)ccc2-n2c1cnc2C (configuration not stated)	203 to 205
NC(=O)c1csc(-c2cccc(N)c2)n1	173 to 174
CN1CS(=O)c2cccc(Br)c21 (configuration not stated)	138 to 140
COC(=O)N1CCC(C2(NO)OCCO2)C(=O)C1 (configuration not stated)	150 to 152
COc1cc2c(cc1OC)/C(=C/c1cc(OC)c(OC)c(OC)c1)N(C(=O)Cc1cc(OC)c(OC)c(OC)c1)CC2	148 to 150
CC1(C)OC(=O)[C@@H](CC=O)O1	37 to 38
CCN1C[C@@H](C(=O)OC(C)(C)C)N(C(=O)OCc2ccccc2)C1=O	97
C#CC1(O)CCC2C3CCC4CC=CCC4C3CCC21C (configuration not stated)	108 to 109
O=C(O)CCc1cccc(OCc2nc(-c3ccccc3)c(-c3ccccc3)o2)c1	118 to 120
CCCCCCCOc1ccc(-c2ncc(C#N)c(Cl)n2)cc1	133 to 135
CC1=CN2CCS(=O)(=O)N=C2C(c2ccc(Oc3ccccc3)cc2)=N1	92 to 92.5
CC(C)Nc1cccnc1N1CCN(C(=O)c2ccc(C(=O)NCCN3CCCCC3)cc2)CC1	106 to 107
NC1=C(N=O)C(=O)N2CCN=C2N1Cc1ccc(Cl)cc1	238 to 241
C[Si](C)(C)c1ccc(F)c([Si](C)(C)C)c1C(=O)N1CCCC1	97 to 100
O=c1oc2c(c(O)c1Br)c(=O)n(Cc1ccccc1)c1ccccc21	226 to 229
CN(C)S(=O)(=O)NC(=O)N1CC(c2ccccc2)C(c2ccc(Cl)cc2)=N1 (configuration not stated)	210 to 212
COc1cc(-c2nc3ccc(OCC(C)N(C)C)cc3n2Cc2ccccc2C(F)(F)F)cc(OC)c1OC (configuration not stated)	163
CC1CCN(C(=O)C(C)Oc2ccc(Oc3ccc(C(F)(F)F)cn3)cc2)O1 (configuration not stated)	94 to 97
Cc1c(S(=O)(=O)Nc2ccc3[nH]cc(CCN(C)C)c3c2)sc2ccc(Cl)cc12	226 to 227

Compound	melting point [°C]
CC#CCOc1ccc(S(=O)(=O)N(C)C(C(=O)NO)C(C)(C)SCCN2CCCC2)cc1 (configuration not stated)	55 to 57
COC(=O)c1cc2c([N+](=O)[O-])csc2nc1C1=NC(C)(C(C)C)C(=O)N1 (configuration not stated)	201 to 202
O=C1CCNc2cc(Cl)c(F)cc21	192 to 194
CCCn1c(=O)c2[nH]c(/C=C/c3ccc(O)c(OC)c3)nc2n(CCC)c1=O	243 to 245
c1ccc(Nc2ccncc2Oc2ccccc2)cc1	111 to 113
NC(=O)C(F)(F)C(O)(Cn1cncn1)c1ccccc1 (configuration not stated)	160 to 161
CN1CCN(c2cccc3c2C[C@H](NC(=O)c2ccc(F)cc2)CC3)CC1	189 to 190
CC(O)=C(C#N)C(=O)Nc1ccc(F)cc1	165 to 166
CCS(=O)(=O)c1ccc(-c2coc3ccc(-c4nnc(C)o4)cc23)c(Cl)c1	180 to 181
Cc1cc(Cl)c(Cl)cc1C(=O)O	176 to 178
CC(=O)OC1CSC(Oc2ccc(Cl)c(-c3cccnc3)c2)C(OC(C)=O)C1OC(C)=O (configuration not stated)	133
Cc1noc2nc(-c3ccccc3)cc(O)c12	281 to 282
C[C@@H](n1cncn1)[C@](O)(Cn1cncn1)c1ccccc1F	105 to 106
CN(C)c1ccc(C=C2SC(N3CCCC3)=NC2=O)cc1-c1cc(F)c(O)c(C23CC4CC(CC(C4)C2)C3)c1	294 to 298
CC1(C(=O)C(=Cc2ccc(Cl)cc2Cl)n2cncn2)COCOC1	133 to 135
Cc1c(C)c2c(c(C)c1Br)C(c1ccccc1)CO2 (configuration not stated)	107 to 108
Cn1c(=O)c2ccccc2n(Cc2ccc(F)cc2)c1=N	135 to 137
CC(C)c1cccc(C(C)C)c1NC(=O)Cc1ccccc1NCCc1ccccc1	120 to 123
Fc1ccc(-c2nn3c(-c4ccccc4)cc(-c4ccccc4)nc3c2-c2ccncc2)cc1	243 to 245
O=C1C=CCC(c2ccccc2)(c2ccccc2)O1	170 to 173

Second part, the compound after the results:

melting point [°C]	Compound
233 to 234	COc1c(CCc2ccc(NS(C)(=O)=O)cc2)cc(N2CCC(=O)NC2=O)cc1C(C)(C)C
99 to 110	O=C(Cc1ccc(CN2CCC(=O)C(C(c3ccccc3)c3ccccc3)C2)cc1)OCC(=O)c1ccccc1 (configuration not stated)
174 to 176	CC(C)c1nc2cc(N)ccn2n1
121 to 124	COC(=O)c1snc(-c2cc(OC)c(Cl)cc2F)c1N
113 to 114	Cc1cc(Oc2cccc(C(F)(F)F)c2)nn1C(=O)Nc1ccc(Cl)cc1Cl
170 to 172	O=C1CC(O)CN1S(=O)(=O)c1ccc(N2CCCCCC2)cc1 (configuration not stated)
81 to 82	COC(=O)CCSCCOC1OC(COC(C)=O)C(OC(C)=O)C(OC(C)=O)C1OC(C)=O (configuration not stated)
90 to 95	Cc1cc(F)ccc1-c1nc(N[C@@H](C)CO)nc2c1ccc(=O)n2-c1c(F)cccc1F
188	CC(C)(C)c1cc(-c2nnc(SCC(=O)O)s2)cc(C(C)(C)C)c1O
104 to 105	O=c1c2ccccc2cnn1Cc1ccccc1
95 to 100	CCc1nc2cc(NC)c(Cl)cc2n1-c1ccc(CCNC(=O)NS(=O)(=O)c2ccc(C)cc2)cc1
164 to 167	Cc1c(Cc2ccncc2)nnc(Nc2cccc(Cl)c2)c1C
265 to 290	Oc1c(C(O)C(F)(F)F)cnc2c(-c3cc(-c4ccccc4)cs3)cnn12 (configuration not stated)
78 to 82	CC(=O)Oc1ccc(C(=O)NNC(=O)OC(C)(C)C)cc1OC(C)=O
195 to 197	CCn1c2ccccc2c2cc(NC(C)=O)ccc21
120 to 123	OCCn1cc(C(CC2CCCCCC2)=NO)c2c(Cl)cccc21
88 to 90	OCCN(CCO)CCCNc1nc2cc(Cl)c(Cl)cc2nc1-c1ccccn1
161 to 162	O=C1c2ccccc2C(=O)N1OCC=Cc1ccc(Br)cc1
134 to 135	CC(C)(C=CBr)C(=O)Nc1ccc(Cl)cc1

melting point [°C]	Compound
175 to 179	CC(=O)NC[C@H]1CN(c2ccc(N3CCC(=CC4(C#N)CC4)CC3)c(F)c2)C(=O)O1
122 to 123	COc1cccc(-c2csc(-c3cccc([N+](=O)[O-])c3)n2)c1
203 to 205	COc1ccc(CC(=O)NC(NC(=NC#N)c2cccc3ncccc23)C(C)(C)C)cc1OC (configuration not stated)
99 to 100	COc1ccc(C=Cc2ccc(CBr)cc2)c(Cl)c1
116 to 118	CC[C@H](COC)n1cc(Br)nc(N2CCc3cc(OC)cc(C)c32)c1=O
178 to 179	CCS(=O)(=O)c1ccc(C(CC2CCCC2)C(=O)Nc2nccs2)cc1 (configuration not stated)
140 to 141	O=C(N1Cc2ccccc2Nc2ccccc21)C(F)(F)F
249	Cc1ccc(NC(=O)c2cnn3c(C(F)F)cc(-c4ccc(C(F)(F)F)cc4)nc23)cc1S(N)(=O)=O
45	CCC1(C)OC(c2ccc(S(C)(=O)=O)cc2)=C(c2ccc(C(C)(C)C)cc2)C1=O (configuration not stated)
121 to 123	C/C=C/C(=O)NCCc1ccc(F)cc1
174 to 175	Cc1c(CN2CCc3c(c4cccc(F)c4n3C)C2=O)ncn1C
230 to 232	Cc1cccc([N+](=O)[O-])c1C(=O)Nc1nnn[nH]1
119 to 120	CC(C)(C)c1cc(-c2c[nH]c(S(C)(=O)=O)n2)cc(C(C)(C)C)c1O
> 300	Nc1nc(O)c2c(n1)CCCS2
177	O=C(O)CN(CCN(CC(=O)O)C(COCc1ccccc1)C(=O)O)C(COCc1ccccc1)C(=O)O (configuration not stated)
144 to 146	CCC(C)(c1ccc(O)c(C)c1)c1ccc(O)c(C)c1
97.5 to 98.5	COc1ccc(-n2nc(C(C)CCO)cc2-c2ccc(Cl)cc2)cc1 (configuration not stated)
180 to 181	C=C1c2[nH]c3ccc(OC)cc3c2CCN1C=O
209 to 211	Nc1nc(N)nc(N2CCC3(CC2)OCCO3)n1
